# Assay results published in US12187773B2, “Modified GIP peptide analogues” (Antag Therapeutics ApS, priority 2018, dated 2025).
# *1 amine or outer side, *2 acyl side, *3 side chain or, on linkers, in order; H or OH if unused. Where a SMILES comes first, the peptide text is derived from it. Side-chain parts run from the residue outwards. The star is where a group is joined. C16 diacid = O=C(O)CCCCCCCCCCCCCCC(=O)*; γGlu = O=C(O)[C@H](CCC(=O)[*:2])N[*:1]; AEEA = NCCOCCOCC(=O)O
# Experiments:
# Type in all cases: cell-based
# human GIP receptor [1] = target: T1, human GIP receptor (Homo sapiens, UniProt P48546); assay: cAMP accumulation, antagonism (DiscoveRx HitHunter cAMP XS assay); parameters: host or cells: COS-7 (transient, calcium phosphate; pCMV-Script vector)
# T1 sequence (P48546 22-466): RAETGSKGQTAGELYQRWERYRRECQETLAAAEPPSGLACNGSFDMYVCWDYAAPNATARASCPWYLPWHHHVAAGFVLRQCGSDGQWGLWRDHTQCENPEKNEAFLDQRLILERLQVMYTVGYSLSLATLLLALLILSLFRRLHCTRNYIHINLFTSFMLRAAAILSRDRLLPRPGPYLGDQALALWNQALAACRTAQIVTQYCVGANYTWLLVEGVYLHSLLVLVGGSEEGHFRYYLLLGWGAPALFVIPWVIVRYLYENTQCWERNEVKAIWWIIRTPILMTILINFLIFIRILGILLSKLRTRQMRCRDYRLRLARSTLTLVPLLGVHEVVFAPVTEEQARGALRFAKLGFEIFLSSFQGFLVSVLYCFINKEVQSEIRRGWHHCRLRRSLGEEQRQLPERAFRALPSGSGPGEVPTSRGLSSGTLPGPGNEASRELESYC
# Protocol: Transient transfected COS-7 cells expressing the human GIP receptor were seeded in white 96-well plates with a density of 3.5*10^4/well. The day after, the cells were washed twice with Hepes buffered saline (HBS) buffer and incubated with HBS and 1 mM 3-isobutyl-1-methylxanthine (IBMX) for 30 min at 37° C. To test for agonistic properties, ligands were added and incubated for 30 min at 37° C. In order to test for antagonistic properties, the cells were preincubated with the antagonists for 10 min prior to the addition of the agonist and subsequent incubated for 20 additional min. The HitHunter™ cAMP XS assay (DiscoveRx) was carried out according to the manufacturer's instructions.
# In order to develop a GIP receptor antagonist with improved antagonistic properties, individual amino acid substitutions were conducted on GIP(3-30)NH2 and in particular at positions: 16, 18, 30 or 3, 16, 18, 30. The obtained peptides were lipidated at position 18 directly or via a linker. Both the agonistic and antagonistic profiles of the compounds were tested in cAMP accumulation experiments done in transiently transfected COS-7 cells expressing the human GIP receptor. To investigate if these mutated analogues still retained their antagonistic properties, their ability to inhibit a GIP-mediated cAMP response corresponding to 50-80% of maximum activation was examined.
# human GIP receptor [2] = target: T1, human GIP receptor; assay: cAMP accumulation, agonism (DiscoveRx HitHunter cAMP XS assay); parameters: host or cells: COS-7 (transient, calcium phosphate; pCMV-Script vector); details: for Emax: COS-7, read-out: cAMP agonism, Emax
# Outline: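 cAMP accumulation measured by HitHunter cAMP XS in COS-7 cells transiently expressing human GIP receptor, after 30 min in HBS with 1 mM IBMX at 37 °C. Antagonists preincubated 10 min before GIP giving 50-80% of maximum, then 20 min more; agonist mode used 30 min ligand exposure.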
# human GIP receptor [3] = target: T1, human GIP receptor; assay: cAMP agonism (CisBio cAMP Dynamic 2 HTRF assay); details: HEK293, read-out: cAMP agonism, % Efficacy, Table 1C, HEK-293 cells
# Protocol: To test for agonistic properties at the GIP receptor, compounds were diluted and added to cells as described above and incubated for 30 min at 37° C. The resulting increase in intracellular cAMP was determined using the CisBio cAMP Dynamic 2 HTRF Assay Kit as described above.
# human GIP receptor [4] = target: T1, human GIP receptor; assay: cAMP antagonism (CisBio cAMP Dynamic 2 HTRF assay); parameters: pCMV-Script vector; details: Table 1C, CisBio, HEK-293 cells; for IC50: cAMP antagonism, nM (IC50), agonist GIP1-42 at EC50
# Outline: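 Four-parameter fits of cAMP dose-response gave pIC50. cAMP fall was quantified by HTRF competition, ratio 665/620 nm after 60 min at room temperature, against a cAMP standard curve.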
# [5] = cAMP antagonism, nM (IC50), Table 1B, DiscoveRx, transiently transfected COS-7 cells
Compound,IC50 (human GIP receptor [1]; [5]),Emax (human GIP receptor [2]),Emax (human GIP receptor [3]),"cAMP antagonism, % inhib (human GIP receptor [4])",IC50 (human GIP receptor [4]),"IC50 (human GIP receptor [1]; IC50-value (GIPR antagonism), Examples 1 and 2, values of Tables 1B and 2)","cAMP antagonism, % inhib (human GIP receptor [1]; Table 1B, DiscoveRx, COS-7 cells, % inhibition of Emax)","cAMP agonism, Emax (human GIP receptor [2]; Table 1B, DiscoveRx, COS-7 cells)"
CC[C@H](C)[C@H](NC(=O)[C@H](CO)NC(=O)[C@H](Cc1ccc(O)cc1)NC(=O)[C@H](CC(=O)O)NC(=O)[C@H](CO)NC(=O)[C@@H](NC(=O)[C@H](Cc1ccccc1)NC(=O)[C@@H](NC(=O)CNC(=O)[C@@H](N)CO)[C@@H](C)O)[C@@H](C)CC)C(=O)N[C@@H](C)C(=O)N[C@@H](CCSC)C(=O)N[C@@H](CC(=O)O)C(=O)N[C@@H](CCCNC(=N)N)C(=O)N[C@H](C(=O)N[C@@H](CCCCNC(=O)CCCCCCCCCCCCCCC(=O)O)C(=O)N[C@@H](CCC(N)=O)C(=O)N[C@@H](CCC(N)=O)C(=O)N[C@@H](CC(=O)O)C(=O)N[C@@H](Cc1ccccc1)C(=O)N[C@H](C(=O)N[C@@H](CC(N)=O)C(=O)N[C@@H](Cc1c[nH]c2ccccc12)C(=O)N[C@@H](CC(C)C)C(=O)N[C@@H](CC(C)C)C(=O)N[C@@H](C)C(=O)N[C@@H](CCC(N)=O)C(=O)N[C@@H](CCCNC(=N)N)C(=O)O)C(C)C)[C@@H](C)CC [AT259] (H-SGTFISDYSIAMDRIK(C16 diacid)QQDFVNWLLAQR-OH; N-terminus assumed),19 nM,20%,9%,72%,58.4 nM,–,–,–
"CC[C@H](C)[C@H](NC(=O)[C@H](CO)NC(=O)[C@H](Cc1ccc(O)cc1)NC(=O)[C@H](CC(=O)O)NC(=O)[C@H](CO)NC(=O)[C@@H](NC(=O)[C@H](Cc1ccccc1)NC(=O)[C@@H](NC(=O)CNC(=O)CN)[C@@H](C)O)[C@@H](C)CC)C(=O)N[C@@H](C)C(=O)N[C@@H](CCSC)C(=O)N[C@@H](CC(=O)O)C(=O)N[C@@H](CCCNC(=N)N)C(=O)N[C@H](C(=O)N[C@@H](CCCCNC(=O)COCCOCCNC(=O)CC[C@H](NC(=O)CCCCCCCCCCCCCCC(=O)O)C(=O)O)C(=O)N[C@@H](CCC(N)=O)C(=O)N[C@@H](CCC(N)=O)C(=O)N[C@@H](CC(=O)O)C(=O)N[C@@H](Cc1ccccc1)C(=O)N[C@H](C(=O)N[C@@H](CC(N)=O)C(=O)N[C@@H](Cc1c[nH]c2ccccc12)C(=O)N[C@@H](CC(C)C)C(=O)N[C@@H](CC(C)C)C(=O)N[C@@H](C)C(=O)N[C@@H](CCC(N)=O)C(=O)N[C@@H](CCCNC(=N)N)C(=O)O)C(C)C)[C@@H](C)CC [AT269] (HELM PEPTIDE1{G.G.T.F.I.S.D.Y.S.I.A.M.D.R.I.K.Q.Q.D.F.V.N.W.L.L.A.Q.R}|PEPTIDE2{[O=C(O)CCCCCCCCCCCCCCC(=O)[*:2]].[gGlu].[O=C(COCCOCCN[*:1])[*:2]]}$PEPTIDE1,PEPTIDE2,16:R3-3:R2$$$V2.0; N-terminus assumed)",91 nM,12%,0%,–,–,–,–,–
CC[C@H](C)[C@H](NC(=O)[C@H](CO)NC(=O)[C@H](Cc1ccc(O)cc1)NC(=O)[C@H](CC(=O)O)NC(=O)[C@H](CO)NC(=O)[C@@H](NC(=O)[C@H](Cc1ccccc1)NC(=O)[C@@H](NC(=O)CNC(=O)CN)[C@@H](C)O)[C@@H](C)CC)C(=O)N[C@@H](C)C(=O)N[C@@H](CCSC)C(=O)N[C@@H](CC(=O)O)C(=O)N[C@@H](CCCNC(=N)N)C(=O)N[C@H](C(=O)N[C@@H](CCCCNC(=O)COCCOCCNC(=O)COCCOCCNC(=O)CC[C@H](NC(=O)CCCCCCCCCCCCCCC(=O)O)C(=O)O)C(=O)N[C@@H](CCC(N)=O)C(=O)N[C@@H](CCC(N)=O)C(=O)N[C@@H](CC(=O)O)C(=O)N[C@@H](Cc1ccccc1)C(=O)N[C@H](C(=O)N[C@@H](CC(N)=O)C(=O)N[C@@H](Cc1c[nH]c2ccccc12)C(=O)N[C@@H](CC(C)C)C(=O)N[C@@H](CC(C)C)C(=O)N[C@@H](C)C(=O)N[C@@H](CCC(N)=O)C(=O)N[C@@H](CCCNC(=N)N)C(=O)O)C(C)C)[C@@H](C)CC [AT275] (H-GGTFISDYSIAMDRIK([AEEA-AEEA-γGlu-C16 diacid])QQDFVNWLLAQR-OH; N-terminus assumed),43 nM,5%,5%,66%,126 nM,–,–,–
CC[C@H](C)[C@H](NC(=O)[C@H](CO)NC(=O)[C@H](Cc1ccc(O)cc1)NC(=O)[C@H](CC(=O)O)NC(=O)[C@H](CO)NC(=O)[C@@H](NC(=O)[C@H](Cc1ccccc1)NC(=O)[C@@H](NC(=O)CNC(=O)[C@@H]1CCCN1)[C@@H](C)O)[C@@H](C)CC)C(=O)N[C@@H](C)C(=O)N[C@@H](CCSC)C(=O)N[C@@H](CC(=O)O)C(=O)N[C@@H](CCCNC(=N)N)C(=O)N[C@H](C(=O)N[C@@H](CCCCNC(=O)COCCOCCNC(=O)COCCOCCNC(=O)CC[C@H](NC(=O)CCCCCCCCCCCCCCC(=O)O)C(=O)O)C(=O)N[C@@H](CCC(N)=O)C(=O)N[C@@H](CCC(N)=O)C(=O)N[C@@H](CC(=O)O)C(=O)N[C@@H](Cc1ccccc1)C(=O)N[C@H](C(=O)N[C@@H](CC(N)=O)C(=O)N[C@@H](Cc1c[nH]c2ccccc12)C(=O)N[C@@H](CC(C)C)C(=O)N[C@@H](CC(C)C)C(=O)N[C@@H](C)C(=O)N[C@@H](CCC(N)=O)C(=O)N[C@@H](CCCNC(=N)N)C(=O)O)C(C)C)[C@@H](C)CC [AT279] (H-PGTFISDYSIAMDRIK([AEEA-AEEA-γGlu-C16 diacid])QQDFVNWLLAQR-OH; N-terminus assumed),19 nM,17%,14%,81%,–,–,–,–
"CC[C@H](C)[C@H](NC(=O)[C@H](CO)NC(=O)[C@H](Cc1ccc(O)cc1)NC(=O)[C@H](CC(=O)O)NC(=O)[C@H](CO)NC(=O)[C@@H](NC(=O)[C@H](Cc1ccccc1)NC(=O)[C@@H](NC(=O)CNC(=O)[C@@H](N)CCC(=O)O)[C@@H](C)O)[C@@H](C)CC)C(=O)N[C@@H](C)C(=O)N[C@@H](CCSC)C(=O)N[C@@H](CC(=O)O)C(=O)N[C@@H](CCCNC(=N)N)C(=O)N[C@H](C(=O)N[C@@H](CCCCNC(=O)COCCOCCNC(=O)CC[C@H](NC(=O)CCCCCCCCCCCCCCC(=O)O)C(=O)O)C(=O)N[C@@H](CCC(N)=O)C(=O)N[C@@H](CCC(N)=O)C(=O)N[C@@H](CC(=O)O)C(=O)N[C@@H](Cc1ccccc1)C(=O)N[C@H](C(=O)N[C@@H](CC(N)=O)C(=O)N[C@@H](Cc1c[nH]c2ccccc12)C(=O)N[C@@H](CC(C)C)C(=O)N[C@@H](CC(C)C)C(=O)N[C@@H](C)C(=O)N[C@@H](CCC(N)=O)C(=O)N[C@@H](CCCNC(=N)N)C(N)=O)C(C)C)[C@@H](C)CC [AT373] (HELM PEPTIDE1{E.G.T.F.I.S.D.Y.S.I.A.M.D.R.I.K.Q.Q.D.F.V.N.W.L.L.A.Q.R.[am]}|PEPTIDE2{[O=C(O)CCCCCCCCCCCCCCC(=O)[*:2]].[gGlu].[O=C(COCCOCCN[*:1])[*:2]]}$PEPTIDE1,PEPTIDE2,16:R3-3:R2$$$V2.0; N-terminus assumed)",–,–,0%,91%,12.6 nM,10 nM,94%,No Agonism
